What was measured:
Assay type in all cases: in vivo
Phakopsora pachyrhizi = assay: Test A: Asian soybean rust control on soybean seedlings; conditions: for Test A disease control rating (100 = 100% disease control, 0 = no disease control): rate 250 ppm, relative to the controls
Plasmopara viticola = assay: Test D: grape downy mildew control on grape seedlings; conditions: for Test D disease control rating: 250 ppm, 100 = 100% disease control, 0 = no control; for Test D disease control rating (100 = 100% disease control, 0 = no disease control): rate 250 ppm, relative to the controls
[1] = tested on: Puccinia recondita f. sp. tritici; assay: Test B: wheat leaf rust control on wheat seedlings; conditions: for Test B disease control rating (100 = 100% disease control, 0 = no disease control): rate 250 ppm, relative to the controls
Botrytis cinerea = assay: Test E: tomato Botrytis control on tomato seedlings; conditions: for Test E disease control rating (100 = 100% disease control, 0 = no disease control): rate 250 ppm, relative to the controls
Phytophthora infestans = assay: whole plant or invertebrate; conditions: tomato seedlings; for Test F disease control rating: 250 ppm, 100 = 100% disease control, 0 = no control; for Test F disease control rating (100 = 100% disease control, 0 = no disease control): rate 250 ppm, relative to the controls
Zymoseptoria tritici = assay: Test C: wheat leaf blotch control on wheat seedlings; conditions: for Test C disease control rating (100 = 100% disease control, 0 = no disease control): rate 250 ppm, relative to the controls
[2] = tested on: Erysiphe graminis f. sp. tritici; assay: Test G: wheat powdery mildew control on wheat seedlings; conditions: for Test G disease control rating (100 = 100% disease control, 0 = no disease control): rate 250 ppm, relative to the controls
[3] = 250 ppm, soybean seedlings, 100 = 100% disease control, 0 = no control
[4] = 250 ppm, wheat seedlings, 100 = 100% disease control, 0 = no control
[5] = 250 ppm, 100 = 100% disease control, 0 = no control

Structure (SMILES)	Test A disease control rating (Phakopsora pachyrhizi; [3]) [%]	Test D disease control rating (Plasmopara viticola) [%]	Test B disease control rating [1, 4] [%]	Test E disease control rating (Botrytis cinerea; [5]) [%]	Test F disease control rating (Phytophthora infestans) [%]	Test C disease control rating (Zymoseptoria tritici; [4]) [%]	Test G disease control rating [2, 5] [%]	Test A disease control rating (100 = 100% disease control, 0 = no disease control) (Phakopsora pachyrhizi) [%]	Test D disease control rating (100 = 100% disease control, 0 = no disease control) (Plasmopara viticola) [%]	Test B disease control rating (100 = 100% disease control, 0 = no disease control) [1] [%]	Test E disease control rating (100 = 100% disease control, 0 = no disease control) (Botrytis cinerea) [%]	Test F disease control rating (100 = 100% disease control, 0 = no disease control) (Phytophthora infestans) [%]	Test C disease control rating (100 = 100% disease control, 0 = no disease control) (Zymoseptoria tritici) [%]	Test G disease control rating (100 = 100% disease control, 0 = no disease control) [2] [%]	pest or weed control at 250 ppm (Phakopsora pachyrhizi; Phakopsora pachyrhizi, 250 ppm, soybean seedlings, 100 = 100% disease control, 0 = no control, read-out: Test A disease control rating) [%]	pest or weed control at 250 ppm ([1]; Puccinia recondita, 250 ppm, wheat seedlings, 100 = 100% disease control, 0 = no control, read-out: Test B disease control rating) [%]	pest or weed control at 250 ppm (Botrytis cinerea; Botrytis cinerea, 250 ppm, 100 = 100% disease control, 0 = no control, read-out: Test E disease control rating) [%]	pest or weed control at 250 ppm (Zymoseptoria tritici; Zymoseptoria tritici, 250 ppm, wheat seedlings, 100 = 100% disease control, 0 = no control, read-out: Test C disease control rating) [%]	pest or weed control at 250 ppm ([2]; Blumeria graminis, 250 ppm, 100 = 100% disease control, 0 = no control, read-out: Test G disease control rating) [%]
CCC(OC(=O)[C@H](C)NC(=O)c1nccc(OC)c1OC(C)=O)C1CCCCC1 (single isomer, unassigned) [Compound 168]	100	31	100	0	0	99	0												
CCC(OC(=O)[C@H](C)NC(=O)c1nccc(OC)c1OC(C)=O)C1CCCCC1 (single isomer, unassigned) [Compound 169]	100	17	41	0	0	83	35												
CCC(OC(=O)[C@H](C)NC(=O)c1nccc(OC)c1OCOC(=O)C(C)C)C1CCCCC1 (single isomer, unassigned) [Compound 170]	100	32	100	0	0	100	0												
CCC(OC(=O)[C@H](C)NC(=O)c1nccc(OC)c1O)C1CCCCC1 (single isomer, unassigned) [Compound 182]	100	15	0	0	0	45	0												
COc1ccnc(C(=O)N[C@@H](C)C(=O)OC(C)C2CCCc3ccccc32)c1O (single isomer, unassigned) [Compound 183]	100	44	99	0	0	98	0												
COc1ccnc(C(=O)N[C@@H](C)C(=O)OC(C)C2CCCc3ccccc32)c1O (single isomer, unassigned) [Compound 184]	100	64	99	0	0	100	0												
CCC(OC(=O)[C@H](C)NC(=O)c1nccc(OC)c1OCOC(=O)C(C)C)C1CCCCC1 (single isomer, unassigned) [Compound 188]								100	43	68	0	0	27	0					
CCC(OC(=O)[C@H](C)NC(=O)c1nccc(OC)c1OCOC(C)=O)C1CCCCC1 (single isomer, unassigned) [Compound 189]								100	46	100	0	0	98	26					
CCC(OC(=O)[C@H](C)NC(=O)c1nccc(OC)c1OCOC(C)=O)C1CCCCC1 (single isomer, unassigned) [Compound 190]								100	43	74	0	0	46	0					
COc1ccnc2c(=O)n([C@@H](C)C(=O)OC(C)c3ccc(C4CCCCC4)cc3)c(=O)oc12 (single isomer, unassigned) [Compound 194]								87	18	68	0	0	37	0					
COc1ccnc2c(=O)n([C@@H](C)C(=O)OC(C)c3ccc(C4CCCCC4)cc3)c(=O)oc12 (single isomer, unassigned) [Compound 195]								100	17	99	0	0	83	0					
COc1cccc(C(=O)NC(C)C(=O)OC(C)c2ccccc2Cc2ccccc2)c1O (stereo not shown) [Compound 5]	0	73	0	0	39	0	0												
COc1cccc(C(=O)NC(C)C(=O)OC(C)c2ccccc2Cc2ccccc2)c1O (stereo not shown) [Compound 6]		28			0										0	0	0	0	0
COc1ccnc(C(=O)N[C@@H](C)C(=O)OC(C2CCCCC2)C2CCCCC2)c1O [Compound 45]	100	43	0	0	9	39	0												
COc1ccnc(C(=O)N[C@@H](C)C(=O)OC(C2CCCCC2)C2CCCCC2)c1OC(C)=O [Compound 46]	100	22	68	0	0	68	91												
COc1ccnc(C(=O)N[C@@H](C)C(=O)OC(C)c2ccc(-n3ccc(C(F)(F)F)n3)cc2Cc2ccccc2)c1O (stereo partly shown) [Compound 93]	99	0	74	0	0	72	0												
